Measured values published in ChEMBL document CHEMBL4811216, “Chemotherapy for human schistosomiasis: how far have we come? What's new? Where do we go from here?” (RSC Med Chem, 2020).
Each block holds one molecule with its values, some of them ahead of it.

Legend:
Schistosoma mansoni [1] = experiment: Antischistosomal activity against male Schistosoma mansoni assessed as worm killing effect at 100 uM measured after 24 hrs by phase-contrast microscopy relative to control; type: functional
Schistosoma mansoni [2] = experiment: Antischistosomal activity against Schistosoma mansoni assessed as worm killing effect at 100 uM measured after 24 hrs by phase-contrast microscopy relative to control; type: functional
Schistosoma mansoni [3] = experiment: Antischistosomal activity against Schistosoma mansoni infected in Swiss albino mouse assessed as reduction in worm burden at 20 mg/kg, po administered for 5 days relative to control; type: functional; set-up: scale not given: the % may be the effect or the level left; details: time 5 day
Schistosoma mansoni [4] = experiment: Antischistosomal activity against female Schistosoma mansoni assessed as worm killing effect at 100 uM measured after 24 hrs by phase-contrast microscopy relative to control; type: functional
Schistosoma mansoni [5] = experiment: Potentiation of praziquantel-induced antischistosomal activity against Schistosoma mansoni infected in Swiss albino mouse assessed as worm burden at 20 mg/kg, po administered for 5 days (reference value: 60%); type: functional; details: time 5 day
Schistosoma mansoni [6] = experiment: Antischistosomal activity against Schistosoma mansoni infected in Swiss albino mouse assessed as reduction in intestinal tissue egg burden at 20 mg/kg, po administered for 5 days relative to control; type: functional; set-up: scale not given: the % may be the effect or the level left; details: time 5 day
Schistosoma mansoni [7] = experiment: Potentiation of praziquantel-induced antischistosomal activity against Schistosoma mansoni infected in Swiss albino mouse assessed as intestinal egg burden at 20 mg/kg, po administered for 5 days (reference value: 67%); type: functional; details: time 5 day
Schistosoma mansoni [8] = experiment: Antischistosomal activity against adult Schistosoma mansoni LE assessed as worm mortality at 100 ug/ml incubated for 24 hrs by inverted microscopic method relative to control; type: functional
Schistosoma mansoni [9] = experiment: Antischistosomal activity against Schistosoma mansoni LE schistosomula assessed as reduction in worm vitality measured every 24 hrs by inverted microscopy; type: functional, organism-based
Schistosoma mansoni [10] = experiment: Antischistosomal activity against adult Schistosoma mansoni LE assessed as reduction in worm vitality measured every 24 hrs by inverted microscopy; type: functional, organism-based
Schistosoma mansoni [11] = experiment: Antischistosomal activity against Schistosoma mansoni Puerto Rican schistosomula assessed as effect on worm phenotype measured after 72 hrs; type: functional, organism-based
Schistosoma mansoni [12] = experiment: Antischistosomal activity against adult Schistosoma mansoni Puerto Rican incubated for 72 hrs by microscopic method; type: functional, organism-based
Schistosoma mansoni [13] = experiment: Antischistosomal activity against juvenile Schistosoma mansoni Puerto Rican incubated for 72 hrs by microscopic method; type: functional, organism-based
Schistosoma mansoni [14] = experiment: Antischistosomal activity against Schistosoma mansoni Puerto Rican schistosomula assessed as effect on worm motility measured after 72 hrs; type: functional, organism-based
Schistosoma mansoni [15] = experiment: schistosomicidal-activity against Schistosoma mansoni infected in NIH-Swiss mouse assessed as reduction in liver-staged worm burden at 10 mg/kg, ip administered daily for 5 consecutive days relative to control; type: functional; set-up: scale not given: the % may be the effect or the level left
Schistosoma mansoni [16] = experiment: Schistosomicidal-activity against Schistosoma mansoni infected in NIH-Swiss mouse assessed as reduction in skin staged worm burden at 10 mg/kg, ip administered daily for 5 consecutive days relative to control; type: functional; set-up: scale not given: the % may be the effect or the level left
Schistosoma mansoni [17] = experiment: schistosomicidal-activity against adult Schistosoma mansoni infected in NIH-Swiss mouse assessed as reduction in worm burden at 10 mg/kg, ip administered daily for 5 consecutive days relative to control; type: functional; set-up: scale not given: the % may be the effect or the level left; details: time 5 day
Schistosoma mansoni [18] = experiment: Antischistosomal activity against female Schistosoma mansoni LE incubated for 24 hrs by MTT assay; type: functional
CHO-K1 = experiment: Cytotoxicity against CHO-K1 cells incubated for 24 hrs by colorimetric assay; type: functional, cell-based; details: Cricetulus griseus, CHO-K1, 24 h
Schistosoma mansoni [19] = experiment: Antischistosomal activity against male Schistosoma mansoni LE incubated for 24 hrs by MTT assay; type: functional
Schistosoma japonicum = experiment: Antischistosomal activity against Schistosoma japonicum assessed as worm mortality at 5 ug/ml incubated for 72 hrs by microscopic method relative to control; type: functional; details: dose 5 µg/ml
Plasmodium falciparum [20] = experiment: Antiplasmodial activity against Plasmodium falciparum Dd2 incubated for 72 hrs by SYBR Green1 by fluorometric assay; type: functional, organism-based; details: Dd2, 72 h
Plasmodium falciparum [21] = experiment: Antiplasmodial activity against Plasmodium falciparum 3D7 incubated for 72 hrs by SYBR Green1 by fluorometric assay; type: functional, organism-based; details: 3D7, 72 h
Schistosoma mansoni [22] = experiment: Antischistosomal activity against Schistosoma mansoni infected in mouse assessed as worm burden reduction at 200 mg/kg, po administered as single dose and measured after 17 to 21 days relative to control; type: functional; set-up: scale not given: the % may be the effect or the level left; details: time 17-21 day
Schistosoma mansoni [23] = experiment: Antischistosomal activity against Schistosoma mansoni LE infected in BALB/c mouse assessed as reduction in worm burden at 10 mg/kg, ip administered for 5 consecutive days starting from day 23 by microscopic method relative to control; type: functional; set-up: scale not given: the % may be the effect or the level left
Schistosoma mansoni [24] = experiment: Antischistosomal activity against Schistosoma mansoni LE infected in BALB/c mouse assessed as reduction in worm burden at 10 mg/kg, ip administered for 5 consecutive days starting from day 1 post infection by microscopic method relative to control; type: functional; set-up: scale not given: the % may be the effect or the level left
Schistosoma mansoni [25] = experiment: Antischistosomal activity against female Schistosoma mansoni Egyptian strain infected in BALB/c mouse assessed as reduction in total worm burden at 200 mg/kg, po measured after 2 weeks by scanning electron microscopy; type: functional; set-up: scale not given: the % may be the effect or the level left
Schistosoma mansoni [26] = experiment: Antischistosomal activity against female Schistosoma mansoni Egyptian strain infected in BALB/c mouse assessed as reduction in worm burden at 200 mg/kg, po measured after 2 weeks; type: functional; set-up: scale not given: the % may be the effect or the level left
Schistosoma mansoni [27] = experiment: Antischistosomal activity against female Schistosoma mansoni Egyptian strain infected in BALB/c mouse assessed as reduction in total worm burden at 300 mg/kg, po measured after 2 weeks by scanning electron microscopy relative to control; type: functional; set-up: scale not given: the % may be the effect or the level left
Schistosoma mansoni [28] = experiment: Antischistosomal activity against female Schistosoma mansoni Egyptian strain infected in BALB/c mouse assessed as reduction in male worm burden at 300 mg/kg, po measured after 2 weeks by scanning electron microscopy relative to control; type: functional; set-up: scale not given: the % may be the effect or the level left
Schistosoma mansoni [29] = experiment: Antischistosomal activity against female Schistosoma mansoni Egyptian strain infected in BALB/c mouse assessed as reduction in female worm burden at 300 mg/kg, po measured after 2 weeks by scanning electron microscopy relative to control; type: functional; set-up: scale not given: the % may be the effect or the level left
ATP-diphosphohydrolase 1 = target: T1, ATP-diphosphohydrolase 1 (Schistosoma mansoni, UniProt Q7YTA4); experiment: Inhibition of Schistosoma mansoni ATPDase1 incubated for 30 mins
T1 sequence (Q7YTA4 whole entry): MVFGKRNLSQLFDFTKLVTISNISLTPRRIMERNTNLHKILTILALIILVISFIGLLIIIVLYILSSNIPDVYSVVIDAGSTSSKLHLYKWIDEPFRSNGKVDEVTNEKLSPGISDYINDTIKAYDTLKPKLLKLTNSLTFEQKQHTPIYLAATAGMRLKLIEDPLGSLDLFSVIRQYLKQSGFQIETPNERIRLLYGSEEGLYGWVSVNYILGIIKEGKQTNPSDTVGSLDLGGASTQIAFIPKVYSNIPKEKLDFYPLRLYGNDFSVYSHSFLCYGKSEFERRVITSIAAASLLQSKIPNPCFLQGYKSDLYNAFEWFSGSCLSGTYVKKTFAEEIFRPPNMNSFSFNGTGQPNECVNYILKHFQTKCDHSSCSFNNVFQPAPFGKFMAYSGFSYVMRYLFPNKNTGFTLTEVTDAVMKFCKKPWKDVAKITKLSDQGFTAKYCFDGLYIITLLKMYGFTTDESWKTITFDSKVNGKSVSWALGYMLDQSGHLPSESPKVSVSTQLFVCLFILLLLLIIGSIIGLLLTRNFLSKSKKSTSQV

Schistosoma mansoni [30] = experiment: Antischistosomal activity against Schistosoma mansoni BH infected in Balb/c mouse assessed as reduction in worm burden at 400 mg/kg, po measurement after 2 weeks; type: functional; set-up: scale not given: the % may be the effect or the level left
Schistosoma mansoni [31] = experiment: Antischistosomal activity against Schistosoma mansoni at 50 uM measured after 120 hrs relative to control; type: functional
Schistosoma mansoni [32] = experiment: Antischistosomal activity against Schistosoma mansoni at 50 uM measured after 96 hrs relative to control; type: functional

Compound: Brc1ccc(-c2c[nH]c(-c3ccccn3)n2)cc1
- Activity (Schistosoma mansoni [1]): 100%
- Activity (Schistosoma mansoni [2]): 56%
- Activity (Schistosoma mansoni [3]): 29%
- Activity (Schistosoma mansoni [4]): 0%
- Activity (Schistosoma mansoni [5]): 96%
- Activity (Schistosoma mansoni [6]): 35%
- Activity (Schistosoma mansoni [7]): 83%

Compound: Cc1ccc(-c2cs/c(=N/N=C/CN3C(=O)c4ccccc4C3=O)[nH]2)cc1
- mortality at 100 µg/mL (Schistosoma mansoni [8]): 100%
- EC50 (Schistosoma mansoni [9]): 9.77 µM
- EC50 (Schistosoma mansoni [10]): 38.7 µM

- IC50 (Schistosoma mansoni [11]): < 2 µM
- IC50 (Schistosoma mansoni [12]): 9.4 µM
- IC50 (Schistosoma mansoni [13]): < 2 µM
- IC50 (Schistosoma mansoni [14]): < 2 µM
Compound: CC1(C)CCC[C@]2(C)C(CC[C@@](C)(O)/C=C/c3ccc(F)cc3)[C@](C)(O)CC[C@@H]12 (stereo not given in full)

Compound: N#Cc1c(-c2ccccc2)no[n+]1[O-]
- Activity (Schistosoma mansoni [15]): 88%
- Activity (Schistosoma mansoni [16]): 99%
- Activity (Schistosoma mansoni [17]): 94%

Compound: C=CC(C)(C)c1cc(/C=C/C(=O)c2ccc(O)cc2)c(OC)cc1O [LICOAGROCHACONE A]
- LC50 (Schistosoma mansoni [18]): 9.12 µM
- IC50 (CHO-K1): 508 µM
- LC50 (Schistosoma mansoni [19]): 9.52 µM

Compound: CCCCNCC(O)Cn1c2ccc(Cl)cc2c2cc(Cl)ccc21 (stereo not given)
- Activity (Schistosoma japonicum): 100%
- IC50 (Plasmodium falciparum [20]): 0.047 µM
- IC50 (Plasmodium falciparum [21]): 0.274 µM

Compound: NC(=O)c1nc(-c2ccc(C(F)(F)F)c(F)c2)cnc1Nc1cnc(OCCCN2CCCCC2)nc1
- Activity (Schistosoma mansoni [22]): 37.6%

Compound: CC(C)Oc1ccc(-c2ccc(-c3nc4ccccc4[nH]3)s2)cc1
- Activity (Schistosoma mansoni [23]): 55.3%
- Activity (Schistosoma mansoni [24]): 34.6%
- Activity (Schistosoma mansoni [25]): 44%
- Activity (Schistosoma mansoni [26]): 66%
- Activity (Schistosoma mansoni [27]): 55.3%
- Activity (Schistosoma mansoni [28]): 34.6%
- Activity (Schistosoma mansoni [29]): 76.5%

Compound: COc1ccc(/C=C/C(=O)c2ccccc2O)cc1
- IC50 (ATP-diphosphohydrolase 1): 30.6 µM
- Activity (Schistosoma mansoni [30]): 32.8%

Compound: CN(c1ccc(F)cc1)N(C)C1NC(=O)N(Cc2ccc(Cl)cc2)C1=S (stereo not given)
- Activity (Schistosoma mansoni [31]): 100%
- Activity (Schistosoma mansoni [32]): 100%
